According to publication PMC12118597 (Science Advances, 2025):
Several values for one entry are separate records, joined by “and”; a condition that tells them apart may be missing. Identical values can stand only once. Entries after “also recorded” stand apart in the source; their conditions may differ. Like-named read-outs stand apart in the source and are kept apart here.

How the values were obtained:
[1] = molecular target: T1, SARS-CoV-2 NSP3 macrodomain (Mac1) (Severe acute respiratory syndrome coronavirus 2, UniProt P0DTD1); format: binding; conditions: for 1-BDC: PanDDA background density correction; for 1-BDC (PanDDA run, DMSO background map): event 1; for Refined ligand occupancy (%): crystallographic refinement; for 2*(1-BDC) (%): occupancy estimate from PanDDA; for Phe132 loop open state: open state of Phe132 loop seen in the ligand-bound structure
[2] = molecular target: T1, SARS-CoV-2 NSP3 macrodomain (Mac1); assay: biochemical; format: binding
[3] = crystal soak, 10 mM soak concentration, P43 crystal form
[4] = ligand-bound crystal structure obtained (TRUE)
[5] = site occupied in X-ray crystal structure
[6] = HTRF binding curve, SARS-CoV-2 Mac1
[7] = SARS CoV-2 macrodomain HTRF assay, dose-response
[8] = crystal soak concentration 10 mM
[9] = crystal soak concentration 10 mM, P43 crystals

Row | SMILES | 1-BDC [1] | Hit (PanDDA run, DMSO background map) ([1]; crystal soak 10 mM) | 1-BDC (PanDDA run, DMSO background map) ([1]; crystal soak 10 mM) | Hit (PanDDA run, overall) [1, 3] | Refined ligand occupancy (%) [1] [%] | X-ray crystal structure [1, 4] | 2*(1-BDC) (%) [1] [%] | Binding site [1, 5] | Hill slope [2, 6] | Hill slope [2, 7] | X-ray crystal structure ([1]; TRUE = crystal structure with ligand obtained) | Binding site ([1]; site of ligand in X-ray crystal structure) | Hit (PanDDA run, DMSO background map) [1, 8] | Modeled (PanDDA run, DMSO background map) [1, 8] | 1-BDC (PanDDA run, DMSO background map) [1, 8] | Hit (PanDDA run, overall) [1, 9] | Modeled (PanDDA run, overall) [1, 9] | Modeling comment (PanDDA run, overall) [1, 9] | Phe132 loop open state [1] | Modeling comment (ligand density) ([1]; crystal soak 10 mM, PanDDA run, overall)
1 | CC(O)C1CCCN1c1ncnc2[nH]ccc12 (centres unmarked) [AVI-4062] | 0.26 | TRUE | 0.26 and 0.29 | TRUE | 70 | TRUE | 52 | Adenosine | 1.1 | 1.1 |  |  |  |  |  |  |  |  |  | 
2 | C[C@H]1CC[C@H](CO)N(c2ncnc3[nH]ccc23)C1 [AVI-4063] | 0.16 | TRUE | 0.21 and 0.16 | TRUE | 50 | TRUE | 32 | Adenosine | 1.1 | 1.1 |  |  |  |  |  |  |  |  |  | 
3 | C[C@@H]1CCN(c2ncnc3[nH]ccc23)[C@H](CO)C1 [AVI-4064] | 0.19 | TRUE | 0.19 | TRUE | 38 | TRUE | 38 | Adenosine | 1.2 | 1.2 |  |  |  |  |  |  |  |  |  | 
4 | O=C(O)C(F)(F)F.OC[C@H](Cc1ccc(O)cc1)Nc1ncnc2[nH]ccc12 [AVI-4066] | 0.2 | TRUE | 0.2 and 0.37 and 0.38 | TRUE | 50 |  | 40 |  | 1.1 | 1.1 | TRUE | Adenosine |  |  |  |  |  |  |  | 
5 | CC(C)(O)C1N(c2ncnc3[nH]ccc23)CCC1(C)C (centres unmarked) [AVI-4126] | 0.16 |  |  |  | 40 | TRUE | 32 | Adenosine | 1.3 | 1.3 |  |  | TRUE | TRUE | 0.17 and 0.16 | TRUE | TRUE | Duplicate, not modeled | TRUE | 
6 | CC(C)(O)C1C2CCCCC2CN1c1ncnc2[nH]ccc12 (centres unmarked) [AVI-4127] | 0.25 |  |  |  | 60 | TRUE | 50 | Adenosine | 1.3 | 1.3 |  |  | TRUE | TRUE | 0.23 and 0.25 | TRUE | TRUE | Duplicate, not modeled | TRUE | 
7 | CC(C)(O)C1C2CCC2CN1c1ncnc2[nH]ccc12 (centres unmarked) [AVI-4128] | 0.2 |  |  |  | 60 | TRUE | 40 | Adenosine | 1.2 | 1.2 |  |  | TRUE | TRUE | 0.27 and 0.2 | TRUE | TRUE | Duplicate, not modeled; also recorded: Weak density for open conformation |  | 
8 | Cc1c[nH]c2ncnc(NCC3(O)CCOCC3)c12 [AVI-4194, 4-(((5-methyl-7H-pyrrolo[2,3-d]pyrimidin-4-yl)amino)methyl)tetrahydro-2H-pyran-4-ol] | 0.09 |  |  |  | 18 | TRUE | 18 | Adenosine | 1.3 | 1.3 |  |  | TRUE | TRUE | 0.13 and 0.09 | TRUE | TRUE | Duplicate, not modeled |  | 
9 | Cc1c[nH]c2ncnc(NCC3(O)CCSCC3)c12 [AVI-4195, 4-(((5-methyl-7H-pyrrolo[2,3-d]pyrimidin-4-yl)amino)methyl)tetrahydro-2H-thiopyran-4-ol] | 0.14 |  |  |  | 28 | TRUE | 28 | Adenosine | 1.2 | 1.2 |  |  | TRUE | TRUE | 0.14 | TRUE | TRUE | Duplicate, not modeled |  | 
10 | CC1CCCC(O)(CNc2ncnc3[nH]ccc23)C1 (centres unmarked) [AVI-4307] | 0.17 | TRUE | 0.17 | TRUE | 34 | TRUE | 34 | Adenosine | 1.0 | 1.0 |  |  |  |  |  |  |  |  |  | 
11 | OC1(CNc2ncnc3[nH]ccc23)CCC(F)(F)CC1 [AVI-4308] | 0.15 | TRUE | 0.15 | TRUE | 30 | TRUE | 30 | Adenosine | 1.2 | 1.2 |  |  |  |  |  |  |  |  |  | 
12 | OC1(CNc2ncnc3[nH]ccc23)CCCC(C(F)(F)F)C1 (centres unmarked) [AVI-4309] | 0.2 | TRUE | 0.21 | TRUE | 40 | TRUE | 40 | Adenosine | 1.4 | 1.4 |  |  |  |  |  |  |  |  |  | 
13 | CC1(C)CCC(O)(CNc2ncnc3[nH]ccc23)CC1 [AVI-4310] |  | TRUE | 0.14 | TRUE |  |  |  |  | 1.3 | 1.3 |  |  |  |  |  |  |  |  |  | Weak density, not modeled
14 | OC1(CNc2ncnc3[nH]ccc23)CCCOC1 (centres unmarked) [AVI-4311] | 0.25 | TRUE | 0.25 | TRUE | 50 | TRUE | 50 | Adenosine | 1.4 | 1.4 |  |  |  |  |  |  |  |  |  | 
15 | CC1CCC(O)(CNc2ncnc3[nH]ccc23)CC1 (centres unmarked) [AVI-4312] | 0.22 |  |  |  | 44 | TRUE | 44 | Adenosine | 1.2 | 1.2 |  |  |  |  |  |  |  |  |  | 
16 | OC1(CNc2ncnc3[nH]ccc23)COC2CC1C2 (centres unmarked) [AVI-4313] | 0.19 |  |  |  | 38 | TRUE | 38 | Adenosine | 1.2 | 1.2 |  |  |  |  |  |  |  |  |  | 
17 | OC1(CNc2ncnc3[nH]ccc23)CCOCC1 [AVI-4314] | 0.15 |  |  |  | 30 | TRUE | 30 | Adenosine | 1.2 | 1.2 |  |  |  |  |  |  |  |  |  | 
18 | O=S1(=O)CCCC(O)(CNc2ncnc3[nH]ccc23)C1 (centres unmarked) [AVI-4317] | 0.43 |  |  |  | 100 | TRUE | 86 | Adenosine | 1.2 | 1.2 |  |  |  |  |  |  |  |  |  | 
19 | CN(CC1(O)CCOCC1)c1ncnc2[nH]ccc12 [AVI-4318] | 0.25 |  |  |  | 50 | TRUE | 50 | Adenosine | 1.2 | 1.2 |  |  |  |  |  |  |  |  |  | 
20 | OC1(CNc2ncnc3[nH]ccc23)CCSCC1 [AVI-4319] | 0.16 |  |  |  | 32 | TRUE | 32 | Adenosine | 1.2 | 1.2 |  |  |  |  |  |  |  |  |  | 
21 | OC1(CNc2ncnc3[nH]ccc23)CC2CCC1CC2 (centres unmarked) [AVI-4320] | 0.14 |  |  |  | 28 | TRUE | 28 | Adenosine | 1.1 | 1.1 |  |  |  |  |  |  |  |  |  | 
22 | OC1(CNc2ncnc3[nH]ccc23)CCCSC1 (centres unmarked) [AVI-4322] | 0.21 |  |  |  | 42 | TRUE | 42 | Adenosine | 1.3 | 1.3 |  |  |  |  |  |  |  |  |  | 
23 | Cc1c[nH]c2ncnc(NCC3(O)CCC(C)(C)CC3)c12 [AVI-4330] |  |  |  |  |  |  |  |  | 1.3 | 1.3 |  |  | TRUE |  | 0.11 | TRUE |  | Weak density, not modeled |  | 
